One compound from article PMC4128046, “Effect of a toggle switch mutation in TM6 of the human adenosine A3 receptor on Gi protein-dependent signalling and Gi-independent receptor internalization” (British Journal of Pharmacology, 2014) can be followed below.

The experiment has as its target T1, A3-YFP (Homo sapiens, UniProt P0DMS8).
T1 construct: cDNA encoding the full length human A3 receptor; expressed in transfected cells
T1 sequence (P0DMS8 1-318): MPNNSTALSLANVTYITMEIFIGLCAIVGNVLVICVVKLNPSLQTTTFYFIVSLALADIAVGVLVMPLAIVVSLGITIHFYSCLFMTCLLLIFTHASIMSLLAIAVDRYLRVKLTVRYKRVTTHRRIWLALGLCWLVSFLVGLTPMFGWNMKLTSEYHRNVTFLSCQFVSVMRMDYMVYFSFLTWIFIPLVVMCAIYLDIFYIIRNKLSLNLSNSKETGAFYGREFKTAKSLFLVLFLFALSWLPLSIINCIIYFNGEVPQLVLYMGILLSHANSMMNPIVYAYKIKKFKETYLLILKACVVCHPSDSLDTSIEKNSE
As to the kind of experiment: Fluorescence-based competition binding assay with CA200645, A3-YFP. The following applies: A3-YFP cells, 25 nM CA200645, 60 min, 37°C. The procedure: On the day of analysis, normal growth medium was removed and cells washed once with HBSS pre-warmed to 37°C. […] Buffer was then removed from each well, cells washed once in HBSS and fresh HBSS added at room temperature. Plates were immediately imaged using an ImageXpress Ultra confocal plate reader, which captured four central images per well using a Plan Fluor 40× NA0.6 extra-long working distance objective. CA200645 was excited at 635 nm and emission collected through a 640–685 nm band pass filter. Total image intensity was obtained using a multiwave length cell scoring algorithm within MetaXpress software (Molecular Devices).
Time course experiments were fitted using a one phase association equation which is as follows [drawing 2] where Yo represents the level of internalization at time (t) equal to zero, Plateau is the maximal internalization at infinite time and K is the rate constant in […]. Statistical significance was determined by Student's unpaired t-test or by one-way ANOVA with Dunnett's post hoc analysis and P < 0.05 was considered statistically significant.

In turn, `CCCCC#Cc1nc(NC)c2ncn([C@@H]3O[C@H](CO)[C@@H](O)[C@H]3O)c2n1` [HEMADO, 2-(1-hexynyl)-N-methyladenosine] had a Ki of 33.1 nM.

As a reminder, the Ki is the equilibrium dissociation constant of an inhibitor or competing ligand from its target. Higher therefore signals a looser hold on the target.
